What was measured:
[1] = test system: OVCAR-4; assay: NCI-60 anticancer screening (SRB); assay type: cell-based; details: Homo sapiens; OVCAR-4, ovarian cancer; one dose 10 μM; read-out: Growth Inhibition Percentage (GI %)
[2] = test system: MDA-MB-435; assay: NCI-60 anticancer screening (SRB); assay type: cell-based; details: Homo sapiens; MDA-MB-435, melanoma; one dose 10 μM; read-out: Growth Inhibition Percentage (GI %)
[3] = test system: SK-MEL-5; assay: NCI-60 anticancer screening (SRB); assay type: cell-based; details: Homo sapiens; SK-MEL-5, melanoma; one dose 10 μM; read-out: Growth Inhibition Percentage (GI %)
[4] = test system: HCC-2998; assay: NCI-60 anticancer screening (SRB); assay type: cell-based; details: Homo sapiens; HCC-2998, colon cancer; one dose 10 μM; read-out: Growth Inhibition Percentage (GI %)
[5] = test system: MDA-MB-468; assay: NCI-60 anticancer screening (SRB); assay type: cell-based; details: Homo sapiens; MDA-MB-468, breast cancer; one dose 10 μM; read-out: Growth Inhibition Percentage (GI %)
[6] = test system: HOP-62; assay: NCI-60 anticancer screening (SRB); assay type: cell-based; details: Homo sapiens; HOP-62, NSC lung cancer; one dose 10 μM; read-out: Growth Inhibition Percentage (GI %)
[7] = test system: OVCAR-5; assay: NCI-60 anticancer screening (SRB); assay type: cell-based; details: Homo sapiens; OVCAR-5, ovarian cancer; one dose 10 μM; read-out: Growth Inhibition Percentage (GI %)
[8] = test system: K-562; assay: NCI-60 anticancer screening (SRB); assay type: cell-based; details: Homo sapiens, K562; K-562, leukemia; one dose 10 μM; read-out: Growth Inhibition Percentage (GI %)
[9] = test system: RPMI-8226; assay: NCI-60 anticancer screening (SRB); assay type: cell-based; details: Homo sapiens; RPMI-8226, leukemia; one dose 10 μM; read-out: Growth Inhibition Percentage (GI %)
[10] = test system: UACC-257; assay: NCI-60 anticancer screening (SRB); assay type: cell-based; details: Homo sapiens; UACC-257, melanoma; one dose 10 μM; read-out: Growth Inhibition Percentage (GI %)
[11] = test system: OVCAR-3; assay: NCI-60 anticancer screening (SRB); assay type: cell-based; details: Homo sapiens; OVCAR-3, ovarian cancer; one dose 10 μM; read-out: Growth Inhibition Percentage (GI %)
[12] = test system: HCT-15; assay: NCI-60 anticancer screening (SRB); assay type: cell-based; details: Homo sapiens; HCT-15, colon cancer; one dose 10 μM; read-out: Growth Inhibition Percentage (GI %)
[13] = test system: A549/ATCC; assay: NCI-60 anticancer screening (SRB); assay type: cell-based; details: Homo sapiens; A549/ATCC, NSC lung cancer; one dose 10 μM; read-out: Growth Inhibition Percentage (GI %)
[14] = test system: OVCAR-8; assay: NCI-60 anticancer screening (SRB); assay type: cell-based; details: Homo sapiens; OVCAR-8, ovarian cancer; one dose 10 μM; read-out: Growth Inhibition Percentage (GI %)
[15] = test system: KM 12; assay: NCI-60 anticancer screening (SRB); assay type: cell-based; details: Homo sapiens, KM12; KM 12, colon cancer; one dose 10 μM; read-out: Growth Inhibition Percentage (GI %)
[16] = test system: HL-60(TB); assay: NCI-60 anticancer screening (SRB); assay type: cell-based; details: Homo sapiens, leukemia, one dose 10 μM, read-out: Growth Inhibition Percentage (GI %)
[17] = test system: T-47D; assay: NCI-60 anticancer screening (SRB); assay type: cell-based; details: Homo sapiens, T47D, breast cancer, one dose 10 μM, read-out: Growth Inhibition Percentage (GI %)
[18] = test system: SK-OV-3; assay: NCI-60 anticancer screening (SRB); assay type: cell-based; details: Homo sapiens; SK-OV-3, ovarian cancer; one dose 10 μM; read-out: Growth Inhibition Percentage (GI %)
[19] = test system: NCI-H322M; assay: NCI-60 anticancer screening (SRB); assay type: cell-based; details: Homo sapiens, NSC lung cancer, one dose 10 μM, read-out: Growth Inhibition Percentage (GI %)
[20] = test system: LOX IMVI; assay: NCI-60 anticancer screening (SRB); assay type: cell-based; details: Homo sapiens, melanoma, one dose 10 μM, read-out: Growth Inhibition Percentage (GI %)
[21] = test system: SW-620; assay: NCI-60 anticancer screening (SRB); assay type: cell-based; details: Homo sapiens; SW-620, colon cancer; one dose 10 μM; read-out: Growth Inhibition Percentage (GI %)
[22] = test system: RXF 393; assay: NCI-60 anticancer screening (SRB); assay type: cell-based; details: Homo sapiens; RXF 393, renal cancer; one dose 10 μM; read-out: Growth Inhibition Percentage (GI %)
[23] = test system: ACHN; assay: NCI-60 anticancer screening (SRB); assay type: cell-based; details: Homo sapiens, renal cancer, one dose 10 μM, read-out: Growth Inhibition Percentage (GI %)
[24] = test system: SR; assay: NCI-60 anticancer screening (SRB); assay type: cell-based; details: Homo sapiens, leukemia, one dose 10 μM, read-out: Growth Inhibition Percentage (GI %)
[25] = test system: SF-268; assay: NCI-60 anticancer screening (SRB); assay type: cell-based; details: Homo sapiens; SF-268, CNS cancer; one dose 10 μM; read-out: Growth Inhibition Percentage (GI %)
[26] = test system: SNB-75; assay: NCI-60 anticancer screening (SRB); assay type: cell-based; details: Homo sapiens; SNB-75, CNS cancer; one dose 10 μM; read-out: Growth Inhibition Percentage (GI %)
[27] = test system: SNB-19; assay: NCI-60 anticancer screening (SRB); assay type: cell-based; details: Homo sapiens; SNB-19, CNS cancer; one dose 10 μM; read-out: Growth Inhibition Percentage (GI %)
[28] = test system: NCI-H522; assay: NCI-60 anticancer screening (SRB); assay type: cell-based; details: Homo sapiens; NCI-H522, NSC lung cancer; one dose 10 μM; read-out: Growth Inhibition Percentage (GI %)
[29] = test system: NCI-H226; assay: NCI-60 anticancer screening (SRB); assay type: cell-based; details: Homo sapiens; NCI-H226, NSC lung cancer; one dose 10 μM; read-out: Growth Inhibition Percentage (GI %)
[30] = test system: SK-MEL-2; assay: NCI-60 anticancer screening (SRB); assay type: cell-based; details: Homo sapiens; SK-MEL-2, melanoma; one dose 10 μM; read-out: Growth Inhibition Percentage (GI %)
[31] = test system: MOLT-4; assay: NCI-60 anticancer screening (SRB); assay type: cell-based; details: Homo sapiens; MOLT-4, leukemia; one dose 10 μM; read-out: Growth Inhibition Percentage (GI %)

Row | SMILES | inhibition at 10 µM [1] | inhibition at 10 µM [2] | inhibition at 10 µM [3] | inhibition at 10 µM [4] | inhibition at 10 µM [5] | inhibition at 10 µM [6] | inhibition at 10 µM [7] | inhibition at 10 µM [8] | inhibition at 10 µM [9] | inhibition at 10 µM [10] | inhibition at 10 µM [11] | inhibition at 10 µM [12] | melting point | inhibition at 10 µM [13] | inhibition at 10 µM [14] | inhibition at 10 µM [15] | inhibition at 10 µM [16] | inhibition at 10 µM [17] | inhibition at 10 µM [18] | inhibition at 10 µM [19] | other results
1 | CCOC(=O)C1=C(N)N(c2ccc(C)cc2)C2=C(C(=O)CC(C)(C)C2)C1c1ccc(Cl)cc1 (racemic) [8d, (±)-Ethyl 2-amino-4–(4-chlorophenyl)-7,7-dimethyl-1–(4-methylphenyl)-5-oxo-1,4,5,6,7,8-hexahydroquinoline-3-carboxylate] | < 10% | < 10% | 16% | < 10% | 18% | < 10% | < 10% | < 10% | < 10% | < 10% | 16% | 35% | 205 to 207 °C | 14% | 13% | < 10% | 21% | 16% | < 10% | < 10% | inhibition at 10 µM [20]: < 10%; inhibition at 10 µM [21]: 20%; inhibition at 10 µM [22]: < 10%; inhibition at 10 µM [23]: < 10%; inhibition at 10 µM [24]: < 10%; inhibition at 10 µM [25]: < 10%; inhibition at 10 µM [26]: 35%; inhibition at 10 µM [27]: < 10%; inhibition at 10 µM [28]: 15%; inhibition at 10 µM [29]: < 10%; inhibition at 10 µM [30]: < 10%; inhibition at 10 µM [31]: < 10%
2 | CCOC(=O)C1=C(N)N(c2ccccc2)C2=C(C(=O)CC(C)(C)C2)C1c1ccccc1OC (racemic) [6g, (±)-Ethyl 2-amino-4–(2-methoxyphenyl)-7,7-dimethyl-5-oxo-1-phenyl-1,4,5,6,7,8-hexahydroquinoline-3-carboxylate] | < 10% | < 10% | < 10% | < 10% | 11% | < 10% | < 10% | < 10% | < 10% | < 10% | < 10% | < 10% | 243 to 245 °C | < 10% | < 10% | < 10% | < 10% | < 10% | < 10% | < 10% | inhibition at 10 µM [20]: < 10%; inhibition at 10 µM [21]: < 10%; inhibition at 10 µM [22]: < 10%; inhibition at 10 µM [23]: < 10%; inhibition at 10 µM [24]: < 10%; inhibition at 10 µM [25]: < 10%; inhibition at 10 µM [26]: < 10%; inhibition at 10 µM [27]: < 10%; inhibition at 10 µM [28]: < 10%; inhibition at 10 µM [29]: < 10%; inhibition at 10 µM [30]: < 10%; inhibition at 10 µM [31]: < 10%
3 | CCOC(=O)C1=C(N)N(c2ccc(C)cc2)C2=C(C(=O)CC(C)(C)C2)C1c1ccccc1OC (racemic) [6h, (±)-Ethyl 2-amino-4–(2-methoxyphenyl)-7,7-dimethyl-1–(4-methylphenyl)-5-oxo-1,4,5,6,7,8-hexahydroquinoline-3-carboxylate] | < 10% | < 10% | < 10% | < 10% | < 10% | < 10% | < 10% | < 10% | < 10% | < 10% | < 10% | < 10% | 181 to 183 °C | < 10% | < 10% | < 10% | < 10% | < 10% | < 10% | < 10% | inhibition at 10 µM [20]: < 10%; inhibition at 10 µM [21]: < 10%; inhibition at 10 µM [22]: < 10%; inhibition at 10 µM [23]: < 10%; inhibition at 10 µM [24]: < 10%; inhibition at 10 µM [25]: < 10%; inhibition at 10 µM [26]: < 10%; inhibition at 10 µM [27]: < 10%; inhibition at 10 µM [28]: < 10%; inhibition at 10 µM [29]: < 10%; inhibition at 10 µM [30]: < 10%; inhibition at 10 µM [31]: < 10%

Reference: article PMC10408569, “Recruitment of hexahydroquinoline as anticancer scaffold targeting inhibition of wild and mutants EGFR (EGFR^WT, EGFR^T790M, and EGFR^L858R)” (Journal of Enzyme Inhibition and Medicinal Chemistry, 2023)
